Source: PubChem BioAssay (NCI)
Where “and” joins values, the source holds several entries; their conditions need not be identical. Identical values can stand only once.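 Protocol summary: plate cells (96-well), add compound at 5 concentrations, incubate 48 h, interpolate endpoints linearly. GI50 marks 50% less growth. The concentration for full growth arrest is given as TGI.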

How the values were obtained:
Experiment in all cases: NCI anticancer screen, dose series, 48 h
OVCAR-3 ovarian = system: OVCAR-3 ovarian
EKVX NSCLC = system: EKVX NSCLC
U251 CNS = system: U251 CNS
RXF 393 renal = system: RXF 393 renal
786-0 renal = system: 786-0 renal
CAKI-1 renal = system: CAKI-1 renal
SN12C renal = system: SN12C renal
TK-10 renal = system: TK-10 renal
UACC-62 melanoma = system: UACC-62 melanoma
MCF7 breast = system: MCF7 breast

| Compound | TGI (OVCAR-3 ovarian) | TGI (EKVX NSCLC) | TGI (U251 CNS) | TGI (RXF 393 renal) | TGI (786-0 renal) | TGI (CAKI-1 renal) | TGI (SN12C renal) | TGI (TK-10 renal) | GI50 (OVCAR-3 ovarian) | GI50 (EKVX NSCLC) | TGI (UACC-62 melanoma) | GI50 (RXF 393 renal) | GI50 (786-0 renal) | TGI (MCF7 breast) | GI50 (UACC-62 melanoma) | GI50 (U251 CNS) | GI50 (CAKI-1 renal) | GI50 (SN12C renal) | GI50 (MCF7 breast) | GI50 (TK-10 renal) |
| --- | --- | --- | --- | --- | --- | --- | --- | --- | --- | --- | --- | --- | --- | --- | --- | --- | --- | --- | --- | --- |
| COC(=O)Cc1cc(=O)n2c3ccccc3n(C)c2c1C#N | > 100 µM | > 100 µM | > 100 µM | > 100 µM | > 100 µM | > 100 µM | > 100 µM | > 100 µM |  |  |  |  |  |  |  |  |  |  |  |  |
| C/C=C/C=C/c1cc2cc3c(c(O)c2c(=O)[nH]1)C1(CC3)C(O)=c2c(=O)c3c(=O)cc(OC)c(=O)c=3c(=O)c2=C1O (stereo not given) | 1.37 µM and 8.57 µM | 3 µM and 12.2 µM | 0.851 µM and 5.59 µM | 3.13 µM and 10.4 µM | 4.37 µM and 8.39 µM |  |  | 4.13 µM and 16.4 µM | 0.2 µM and 1.7 µM | 0.188 µM and 1.12 µM | 4.34 µM and 14.7 µM | 0.622 µM and 3.36 µM | 0.41 µM and 1.91 µM | 0.215 µM |  |  |  |  |  |  |
| COc1cc(-c2nc(-c3ccccc3)c(-c3ccccc3)[nH]2)cc(OC)c1O | 34.2 µM |  | 33.2 µM | 31.2 µM | 44 µM | 55.2 µM | 37.5 µM | 50.5 µM | 18.3 µM |  | 29.6 µM | 14.7 µM | 19.9 µM | 43.4 µM | 15.2 µM | 16.3 µM | 20.5 µM | 17.6 µM | 13.2 µM | 25.1 µM |
| C=CCNC(=S)NNC(=O)c1c(C)nc2sccn12 | > 100 µM | > 100 µM | > 100 µM | > 100 µM | > 100 µM | > 100 µM | > 100 µM | > 100 µM |  |  | > 100 µM |  |  |  |  |  |  |  |  |  |
| CC(=O)CCC1(c2ccccc2)OC(=O)C(C#N)=C1c1ccccc1 (stereo not given) | > 100 µM | > 100 µM | > 100 µM |  | > 100 µM |  | > 100 µM | > 100 µM |  |  | > 100 µM |  |  |  |  |  |  |  |  |  |
| Cc1cc(Cl)ccc1N=C1NC(=O)C(CC(=O)Nc2cccc(Cl)c2)S1 (stereo not given) | > 100 µM | > 100 µM | > 100 µM | 72.6 µM | > 100 µM | > 100 µM | > 100 µM | > 100 µM |  |  | > 100 µM |  |  |  |  |  |  |  |  |  |
| C[N+](C)(C)CC1CCC(C[N+](C)(C)C)C1=NO (stereo not given) | > 100 µM | > 100 µM | > 100 µM | > 100 µM | > 100 µM |  | > 100 µM |  |  |  | > 100 µM |  |  |  |  |  |  |  |  |  |
| O=S(=O)(c1ccccc1)N1CCCC(c2ccccc2)CC1 (stereo not given) | > 100 µM |  | > 100 µM | > 100 µM | > 100 µM | > 100 µM | > 100 µM | > 100 µM |  |  | > 100 µM |  |  | 53.7 µM |  |  |  |  |  |  |
| Cc1c(Cl)ccc2c1NC(=O)C2(O)CC(=O)c1ccc(Cl)cc1 (stereo not given) | > 100 µM | > 100 µM | > 100 µM | > 88.5 µM | > 100 µM | > 100 µM | > 54.9 µM | > 100 µM |  |  | > 71.5 µM |  |  |  |  |  |  |  |  |  |
| COc1cc(C(=O)c2cnc(-c3c[nH]c4cccc(C)c34)[nH]2)cc(OC)c1OC | 0.0125 µM |  | 49.1 µM |  | > 100 µM | > 100 µM | > 100 µM |  | 0.00332 µM | 0.00804 µM | > 100 µM |  | 0.00681 µM | > 100 µM | 0.0044 µM | 0.00639 µM |  | 0.00929 µM | 0.00344 µM |  |
| CCOc1ccc(NC(=O)CC2SC(=Nc3ccc(C)cc3)NC2=O)cc1 (stereo not given) | > 100 µM | > 100 µM | > 100 µM | > 100 µM | > 100 µM |  | > 100 µM | > 100 µM |  |  | > 100 µM |  |  |  |  |  |  |  |  |  |
